In US20260022143A1, “Cyclic Peptide Inhibitors of IL-23” (JANSSEN PHARMACEUTICA NV, priority 2022, published 2026):
Starred links: 1 amine or outer side, 2 acyl side, 3 side chain; linkers in the order of their positions; H or OH if unused. Positions of bridges follow the written chain, without caps; N, C: chain ends. Non-standard residues stand in square brackets, D forms with d. Residues, ends and D or L forms follow the SMILES beside them. *: point of attachment. X27 = C[N+](C)(C)CCc1cn(-c2ccc(C[C@H](N[*:1])C(=O)[*:2])cc2)nn1; Me3N+CH2CH2(OCH2CH2)4CO = C[N+](C)(C)CCOCCOCCOCCOCCC(=O)*; Me3N+(CH2)2O(CH2)2O(CH2)2CO = C[N+](C)(C)CCOCCOCCC(=O)*; X59 = C[N+](C)(C)CCN(CC*)S(=O)(=O)c1ccccc1[N+](=O)[O-]; CH2CH2OCH2CH2OCH2CH2NMe3+ = C[N+](C)(C)CCOCCOCC*; Trp(7-Me) = Cc1cccc2c(C[C@H](N)C(=O)O)c[nH]c12; Abu(4-yl) = O=C([C@H](CC[*:3])N[*:1])[*:2]; X1 = CN(CC[C@H](N[*:1])C(=O)[*:2])[*:3]; 2Nal = N[C@@H](Cc1ccc2ccccc2c1)C(=O)O; AEF = NCCOc1ccc(C[C@H](N)C(=O)O)cc1; 3Pal = N[C@@H](Cc1cccnc1)C(=O)O; Lys(Me) = CNCCCC[C@H](N)C(=O)O; X5 = C[N+](C)(C)CCOCCOCC(=O)*; Pen = CC(C)(S)[C@H](N)C(=O)O; Thp = NC1(C(=O)O)CCOCC1; X17 = C[N+]1(CC*)CCOCC1; X3 = C[N+](C)(C)CCCCC*; X12 = C[N+](C)(C)CCC*; Sar = CNCC(=O)O

Key:
IL-23R = target: T1, IL-23R (Homo sapiens, UniProt Q5VWK5); experiment: IL23R Reporter Assay; assay type: cell-based; details: HEK293 cells containing IL-23R, IL-12RP1 and STAT-inducible firefly luciferase reporter; 10 ng/mL IL-23 (EC90); 5 h at 37° C.; read-out: IL23R Reporter Assay
T1 construct: host or cells: HEK293
T1 sequence (Q5VWK5 24-629): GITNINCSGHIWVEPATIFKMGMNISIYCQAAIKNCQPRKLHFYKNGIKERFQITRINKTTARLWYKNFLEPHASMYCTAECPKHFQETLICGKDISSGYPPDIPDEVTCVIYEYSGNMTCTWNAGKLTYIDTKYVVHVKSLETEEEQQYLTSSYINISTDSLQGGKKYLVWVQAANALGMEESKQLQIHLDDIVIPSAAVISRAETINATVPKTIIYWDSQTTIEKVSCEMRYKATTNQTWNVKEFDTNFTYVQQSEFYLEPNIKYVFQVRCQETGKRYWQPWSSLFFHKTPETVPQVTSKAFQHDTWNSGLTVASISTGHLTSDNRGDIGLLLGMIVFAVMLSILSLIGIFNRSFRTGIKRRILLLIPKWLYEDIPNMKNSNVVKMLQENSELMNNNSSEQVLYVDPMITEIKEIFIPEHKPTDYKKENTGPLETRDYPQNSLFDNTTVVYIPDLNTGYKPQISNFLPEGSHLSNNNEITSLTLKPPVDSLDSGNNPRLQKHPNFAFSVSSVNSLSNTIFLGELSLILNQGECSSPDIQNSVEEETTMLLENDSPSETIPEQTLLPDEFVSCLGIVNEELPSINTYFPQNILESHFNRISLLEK

[1] = Exposed Polar Surface Area (EPSA); assay type: physicochemical; details: SFC on Chirex 3014 column; sample 1 mM DMSO stock; read-out: EPSA
In short: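 Chirex 3014 column, 35 °C, 4 mL/min; CO2/MeOH + 20 mM NH4 formate, 5→60% modifier at 20%/min. UV/MS detection. EPSA (Å^2) from retention time vs 8-standard calibration line; duplicates; 1 mM DMSO stock injected undiluted.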

Structure (SMILES) | IC50 (IL-23R) | EPSA [1]
CC(=O)N(C)CCCC[C@H](NC(=O)C1(NC(=O)[C@H](Cc2ccc3ccccc3c2)NC(=O)[C@H](Cc2ccc(OCCCCC[N+](C)(C)C)cc2)NC(=O)[C@H]2NC(=O)[C@H](CC(C)C)NC(=O)[C@H](Cc3c[nH]c4c(C)cccc34)NC(=O)[C@H]([C@@H](C)O)NC(=O)[C@H](CC(=O)N(C)C)NC(=O)[C@@H](NC(=O)CCOCCOCC[N+](C)(C)C)C(C)(C)SSC2(C)C)CCOCC1)C(=O)N[C@@H](CC(N)=O)C(=O)N[C@@H](Cc1cccnc1)C(=O)N(C)CC(=O)N(C)C [compound 489, cPEG3aCO-Pen(3)-N(N(Me)2)-T-7MeW-L-Pen(3)-TMAPF-2Nal-THP-K(NMeAc)-N-3Pya-Sar-CON(Me)2] ({Me3N+(CH2)2O(CH2)2O(CH2)2CO}-[Pen]D(NMe2)T[Trp(7-Me)]L[Pen]Y(X3)[2Nal][Thp][Lys(Me)](Ac)N[3Pal][Sar]-NMe2; disulfide 1-6) | 3.7 nM | 164 A^2
CC(=O)NCCCC[C@@H]1NC(=O)[C@H](Cc2c[nH]c3c(C)cccc23)NC(=O)[C@H]([C@@H](C)O)NC(=O)[C@H](CC(N)=O)NC(=O)[C@@H](NC(=O)[C@@H](CCCNC(=N)N)NC(C)=O)C(C)(C)SSC(C)(C)[C@@H](C(=O)N[C@@H](Cc2ccc(OCC[N+]3(C)CCOCC3)cc2)C(=O)N[C@@H](Cc2ccc3ccccc3c2)C(=O)NC2(C(=O)N[C@@H](CCC(=O)O)C(=O)N[C@@H](CC(N)=O)C(=O)N[C@@H](Cc3cccnc3)C(=O)N(C)CC(N)=O)CCOCC2)NC1=O [compound 437] (Ac-[dR][Pen]NT[Trp(7-Me)]K(Ac)[Pen]Y(X17)[2Nal][Thp]EN[3Pal][Sar]-NH2; disulfide 2-7 (inferred)) | 1.2 nM | 186 A^2
CC(=O)NCCCC[C@H](NC(=O)C1(NC(=O)[C@H](Cc2ccc3ccccc3c2)NC(=O)[C@H](Cc2ccc(OCCOCCOCC[N+](C)(C)C)cc2)NC(=O)[C@H]2NC(=O)[C@H](CCCCN(C)C(C)=O)NC(=O)[C@H](Cc3c[nH]c4c(C)cccc34)NC(=O)[C@H]([C@@H](C)O)NC(=O)[C@H](CC(=O)N(C)C)NC(=O)[C@@H](NC(=O)CCOCCOCC[N+](C)(C)C)C(C)(C)SSC2(C)C)CCOCC1)C(=O)N[C@@H](CC(N)=O)C(=O)N[C@@H](Cc1cccnc1)C(=O)N(C)CC(=O)N(C)C [compound 233, cPEG3aCO-Pen(3)-N(N(Me)2)-T-7MeW-K(NMeAc)-Pen(3)-APEG3F-2Nal-THP-K(Ac)-N-3Pya-Sar-CON(Me)2] ({Me3N+(CH2)2O(CH2)2O(CH2)2CO}-[Pen]D(NMe2)T[Trp(7-Me)][Lys(Me)](Ac)[Pen]Y(CH2CH2OCH2CH2OCH2CH2NMe3+)[2Nal][Thp]K(Ac)N[3Pal][Sar]-NMe2; disulfide 1-6) | 3 nM | 141 A^2
CC(=O)N(C)CCCC[C@@H]1NC(=O)[C@H](Cc2c[nH]c3c(C)cccc23)NC(=O)[C@H]([C@@H](C)O)NC(=O)[C@H](CC(=O)N(C)C)NC(=O)[C@@H](NC(=O)CCOCCOCC[N+](C)(C)C)C(C)(C)SSC(C)(C)[C@@H](C(=O)N[C@@H](Cc2ccc(OCCC[N+](C)(C)C)cc2)C(=O)N[C@@H](Cc2ccc3ccccc3c2)C(=O)NC2(C(=O)N[C@@H](CCCCN(C)C(C)=O)C(=O)N[C@@H](CC(N)=O)C(=O)N[C@@H](Cc3cccnc3)C(=O)N(C)CC(=O)N(C)C)CCOCC2)NC1=O [compound 229, cPEG3aCO-Pen(3)-N(N(Me)2)-T-7MeW-K(NMeAc)-Pen(3)-TMA3F-2Nal-THP-K(NMeAc)-N-3Pya-Sar-CON(Me)2] ({Me3N+(CH2)2O(CH2)2O(CH2)2CO}-[Pen]D(NMe2)T[Trp(7-Me)][Lys(Me)](Ac)[Pen]Y(X12)[2Nal][Thp][Lys(Me)](Ac)N[3Pal][Sar]-NMe2; disulfide 1-6) | 19 nM | 145 A^2
CC(=O)N(C)CCCC[C@@H]1NC(=O)[C@H](Cc2c[nH]c3c(C)cccc23)NC(=O)[C@H]([C@@H](C)O)NC(=O)[C@H](CC(=O)N(C)C)NC(=O)[C@@H](NC(=O)CCOCCOCC[N+](C)(C)C)CCSC[C@@H](C(=O)N[C@@H](Cc2ccc(OCCCCC[N+](C)(C)C)cc2)C(=O)N[C@@H](Cc2ccc3ccccc3c2)C(=O)NC2(C(=O)N[C@@H](CCCCN(C)C(C)=O)C(=O)N[C@@H](CC(N)=O)C(=O)N[C@@H](Cc3cccnc3)C(=O)N(C)CC(=O)N(C)C)CCOCC2)NC1=O [compound 523, cPEG3aCO-Abu(1)-N(N(Me)2)-T-7MeW-K(NMeAc)-C(1)-TMAPF-2Nal-THP-K(NMeAc)-N-3Pya-Sar-CON(Me)2] ({Me3N+(CH2)2O(CH2)2O(CH2)2CO}-[Abu(4-yl)]D(NMe2)T[Trp(7-Me)][Lys(Me)](Ac)CY(X3)[2Nal][Thp][Lys(Me)](Ac)N[3Pal][Sar]-NMe2; thioether 1-6) | 5.2 nM | 154 A^2
CC(=O)N(C)CCCC[C@@H]1NC(=O)[C@H](Cc2c[nH]c3c(C)cccc23)NC(=O)[C@H]([C@@H](C)O)NC(=O)[C@H](CC(=O)N(C)C)NC(=O)[C@@H](NC(=O)CCOCCOCC[N+](C)(C)C)C(C)(C)SSC(C)(C)[C@@H](C(=O)N[C@@H](Cc2ccc(OCCOCCOCC[N+](C)(C)C)cc2)C(=O)N[C@@H](Cc2ccc3ccccc3c2)C(=O)NC2(C(=O)N[C@@H](CC(C)C)C(=O)N[C@@H](CC(N)=O)C(=O)N[C@@H](Cc3cccnc3)C(=O)N(C)CC(=O)N(C)C)CCOCC2)NC1=O [compound 467, cPEG3aCO-Pen(3)-N(N(Me)2)-T-7MeW-K(NMeAc)-Pen(3)-APEG3F-2Nal-THP-L-N-3Pya-Sar-CON(Me)2] ({Me3N+(CH2)2O(CH2)2O(CH2)2CO}-[Pen]D(NMe2)T[Trp(7-Me)][Lys(Me)](Ac)[Pen]Y(CH2CH2OCH2CH2OCH2CH2NMe3+)[2Nal][Thp]LN[3Pal][Sar]-NMe2; disulfide 1-6) | 1.2 nM | 154 A^2
CC(=O)NCCCC[C@@H]1NC(=O)[C@H](Cc2c[nH]c3c(C)cccc23)NC(=O)[C@H]([C@@H](C)O)NC(=O)[C@H](CC(N)=O)NC(=O)[C@@H](NC(C)=O)C(C)(C)SSC(C)(C)[C@@H](C(=O)N[C@@H](Cc2ccc(-n3cc(CC[N+](C)(C)C)nn3)cc2)C(=O)N[C@@H](Cc2ccc3ccccc3c2)C(=O)NC2(C(=O)N[C@@H](CCC(=O)O)C(=O)N[C@@H](CC(N)=O)C(=O)N[C@@H](Cc3cccnc3)C(=O)N(C)CC(N)=O)CCOCC2)NC1=O [compound 454] (Ac-[Pen]NT[Trp(7-Me)]K(Ac)[Pen][X27][2Nal][Thp]EN[3Pal][Sar]-NH2; disulfide 1-6 (inferred)) | 2.1 nM | 176 A^2
CNC(=O)C[C@@H]1NC(=O)[C@@H](NC(C)=O)C(C)(C)SSC(C)(C)[C@@H](C(=O)N[C@@H](Cc2ccc(OCCNC(C)=O)cc2)C(=O)N[C@@H](Cc2ccc3ccccc3c2)C(=O)NC2(C(=O)N[C@@H](CCCCN(C)C(C)=O)C(=O)N[C@@H](CC(N)=O)C(=O)N[C@@H](Cc3cccnc3)C(=O)N(C)CC(N)=O)CCOCC2)NC(=O)[C@H](CCCCN(C)C(C)=O)NC(=O)[C@H](Cc2c[nH]c3c(C)cccc23)NC(=O)[C@H]([C@@H](C)O)NC1=O [compound 58] (Ac-[Pen]D(NHMe)T[Trp(7-Me)][Lys(Me)](Ac)[Pen][AEF](Ac)[2Nal][Thp][Lys(Me)](Ac)N[3Pal][Sar]-NH2; disulfide 1-6) | 4.3 nM | 154 A^2
Cc1cccc2c(C[C@@H]3NC(=O)[C@H]([C@@H](C)O)NC(=O)[C@H](CC(=O)N(C)C)NC(=O)[C@@H](NC(=O)CCOCCOCCOCCOCC[N+](C)(C)C)C(C)(C)SSC(C)(C)[C@@H](C(=O)N[C@@H](Cc4ccc(OCCN)cc4)C(=O)N[C@@H](Cc4ccc5ccccc5c4)C(=O)NC4(C(=O)N[C@@H](CCN(C)C(=O)COCCOCC[N+](C)(C)C)C(=O)N[C@@H](CC(N)=O)C(=O)N[C@@H](Cc5cccnc5)C(=O)N(C)CC(=O)N(C)C)CCOCC4)NC(=O)[C@H](CCN(C)C(=O)COCCOCC[N+](C)(C)C)NC3=O)c[nH]c12 [compound 172, cPEG5aCO-Pen(3)-N(N(Me)2)-T-7MeW-Dab(NMecPEG2a)-Pen(3)-AEF-2Nal-THP-Dab(NMecPEG2a)-N-3Pya-Sar-CON(Me)2] ({Me3N+CH2CH2(OCH2CH2)4CO}-[Pen]D(NMe2)T[Trp(7-Me)][X1](X5)[Pen][AEF][2Nal][Thp][X1](X5)N[3Pal][Sar]-NMe2; disulfide 1-6) | 6.5 nM | 145 A^2
CC(=O)N(C)CCCC[C@@H]1NC(=O)[C@H](Cc2c[nH]c3c(C)cccc23)NC(=O)[C@H]([C@@H](C)O)NC(=O)[C@H](CC(=O)N(C)C)NC(=O)[C@@H](NC(=O)CCOCCOCC[N+](C)(C)C)C(C)(C)SSC(C)(C)[C@@H](C(=O)N[C@@H](Cc2ccc(OCCN(CC[N+](C)(C)C)S(=O)(=O)c3ccccc3[N+](=O)[O-])cc2)C(=O)N[C@@H](Cc2ccc3ccccc3c2)C(=O)NC2(C(=O)N[C@@H](CCCCN(C)C(C)=O)C(=O)N[C@@H](CC(N)=O)C(=O)N[C@@H](Cc3cccnc3)C(=O)N(C)CC(=O)N(C)C)CCOCC2)NC1=O [compound 206, cPEG3aCO-Pen(3)-N(N(Me)2)-T-7MeW-K(NMeAc)-Pen(3)-AEF(NsCh)-2Nal-THP-K(NMeAc)-N-3Pya-Sar-CON(Me)2] ({Me3N+(CH2)2O(CH2)2O(CH2)2CO}-[Pen]D(NMe2)T[Trp(7-Me)][Lys(Me)](Ac)[Pen]Y(X59)[2Nal][Thp][Lys(Me)](Ac)N[3Pal][Sar]-NMe2; disulfide 1-6) | 2.6 nM | 145 A^2
